According to ChEMBL document CHEMBL1127438, “Substituted (S)-phenylpiperidines and rigid congeners as preferential dopamine autoreceptor antagonists: synthesis and structure-activity relationships” (J Med Chem, 1994):
“And” between values parts separate entries of the source, which are not always exact repeats. Equal values may be shown once. One block for each molecule: values may come before it.

Legend:
Rattus norvegicus [1] = experiment: Effect (60 min after administration of 200 (micro mol/kg) subcuteneous dose on DA release in brain dialysis model of rat striatum; format: functional
Rattus norvegicus [2] = species on record: Rattus norvegicus; experiment: Compound is tested for concomitant ability to antagonize the locomotor activity induced by Di-Pr-5,6-ADTN; format: functional
Rattus norvegicus [3] = experiment: Compound is evaluated for locomotor activity in reserpine-pretreated habituated rats at 100 umol/kg of subcuteneous dose; format: functional
Dopamine receptor = experiment: Tested for in vitro binding affinity against cloned mammalian dopamine autoreceptor (DA) receptors expressed in CHO-K1 cells using [3H]U-86170 as radioligand; format: cell-based
Rattus norvegicus [4] = experiment: Evaluated for locomotor activity in nonpretreated habituated rats at 100 umol/kg of subcuteneous dose; format: functional; design: unit not given here
Rattus norvegicus [5] = experiment: Compound is evaluated for biochemical accumulation of DOPAC in nonpretreated habituated rats for subcuteneous dose of 100 micro mol/kg in rat striatum; format: functional
D(2) dopamine receptor [6] = biological target: D(2) dopamine receptor (Rattus norvegicus, UniProt P61169)
Description: Affinity against striatal dopamine D2 receptors using [3H]spiperone as radioligand in rats.

D(2) dopamine receptor [7] = biological target: T1, D(2) dopamine receptor (Homo sapiens, UniProt P14416); experiment: biochemical
Description: In vitro binding affinity against cloned mammalian dopamine D2 autoreceptor, expressed in CHO-K1 cells, using [3H]U-86170 as radioligand

D(2) dopamine receptor [8] = biological target: T1, D(2) dopamine receptor; experiment: biochemical; remark: listed apart in the source
Description: Affinity against recombinant dopamine receptor (DA) D2 expressed in CHO-K1 cells, using [3H]-spiperone as radioligand

D(3) dopamine receptor = D(3) dopamine receptor (Homo sapiens, UniProt P35462); experiment: Tested for in vitro binding affinity against cloned mammalian dopamine D3 receptor, expressed in CHO-K1 cells, using [3H]spiperone as radioligand; format: cell-based
Rattus norvegicus [9] = experiment: Compound is evaluated for DOPA accumulation (DOPAacc) level in nonhabituated rats after subcuteneous dose (100 uM/kg) in rat striatum; format: functional
Rattus norvegicus [10] = experiment: Compound is evaluated biochemically in nonhabituated rats for (100 umol/kg) subcuteneous dose, Value expressed as locomotor activity (LMA); format: functional

T1 sequence (P14416 whole entry): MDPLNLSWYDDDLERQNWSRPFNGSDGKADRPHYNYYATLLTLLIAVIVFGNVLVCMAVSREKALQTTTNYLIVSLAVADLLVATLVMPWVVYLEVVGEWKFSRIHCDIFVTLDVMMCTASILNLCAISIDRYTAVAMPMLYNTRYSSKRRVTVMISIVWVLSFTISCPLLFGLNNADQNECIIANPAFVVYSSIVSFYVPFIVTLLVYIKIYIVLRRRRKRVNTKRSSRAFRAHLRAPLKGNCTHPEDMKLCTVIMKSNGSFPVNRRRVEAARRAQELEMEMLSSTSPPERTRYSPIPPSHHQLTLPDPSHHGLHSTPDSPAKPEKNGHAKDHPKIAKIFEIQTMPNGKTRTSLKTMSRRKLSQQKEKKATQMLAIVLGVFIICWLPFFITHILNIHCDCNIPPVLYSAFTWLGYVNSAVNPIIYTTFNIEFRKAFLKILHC
Sequence of D(2) dopamine receptor (Rattus norvegicus, UniProt P61169) (P61169 whole entry): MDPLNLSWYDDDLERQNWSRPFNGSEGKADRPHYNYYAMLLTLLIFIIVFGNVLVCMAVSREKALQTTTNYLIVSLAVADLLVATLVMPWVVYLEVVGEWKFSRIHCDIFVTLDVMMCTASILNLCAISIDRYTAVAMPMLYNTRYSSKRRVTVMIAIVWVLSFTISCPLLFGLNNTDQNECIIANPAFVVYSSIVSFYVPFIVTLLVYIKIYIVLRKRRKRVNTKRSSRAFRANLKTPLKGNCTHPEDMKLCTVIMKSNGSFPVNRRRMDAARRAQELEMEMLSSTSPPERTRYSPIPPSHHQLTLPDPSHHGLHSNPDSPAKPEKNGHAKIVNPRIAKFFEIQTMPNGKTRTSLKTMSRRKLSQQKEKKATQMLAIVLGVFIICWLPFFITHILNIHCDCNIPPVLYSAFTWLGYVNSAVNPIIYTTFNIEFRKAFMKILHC
Sequence of D(3) dopamine receptor (P35462 whole entry): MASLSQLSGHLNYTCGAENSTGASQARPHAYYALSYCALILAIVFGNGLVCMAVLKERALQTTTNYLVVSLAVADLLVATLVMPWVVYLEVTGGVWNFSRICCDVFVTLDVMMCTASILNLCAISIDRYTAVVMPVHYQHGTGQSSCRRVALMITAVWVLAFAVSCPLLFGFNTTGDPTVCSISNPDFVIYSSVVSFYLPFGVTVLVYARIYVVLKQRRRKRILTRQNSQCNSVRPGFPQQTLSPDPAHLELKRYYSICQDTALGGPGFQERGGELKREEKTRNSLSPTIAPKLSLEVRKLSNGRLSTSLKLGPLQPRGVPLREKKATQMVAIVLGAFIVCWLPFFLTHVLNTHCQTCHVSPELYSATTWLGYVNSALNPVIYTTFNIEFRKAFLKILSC

Ki (Dopamine receptor): 40 nM
Compound: CCCN1CCC[C@@H](c2cccc(OS(=O)(=O)C(F)(F)F)c2)C1
Activity (Rattus norvegicus [1]): 223%
LMA (Rattus norvegicus [2]): 78%
LMA (Rattus norvegicus [3]): 26
LMA (Rattus norvegicus [4]): 290
Activity (Rattus norvegicus [5]): 264% and 89%

Compound: CCCN1CCC[C@@H](c2cccc(OCC(F)(F)F)c2)C1
Ki (D(2) dopamine receptor [6]): 1670 nM
Ki (D(2) dopamine receptor [7]): 820 nM
Ki (D(2) dopamine receptor [8]): > 217 nM
Ki (D(3) dopamine receptor): 1410 nM
Control (Rattus norvegicus [9]): 96%
Control (Rattus norvegicus [10]): 90%
